Where “and” joins values, the source holds several entries; their conditions need not be identical. Equal values may be shown once.
What was measured:
[1] = mn = molality of the nth substance listed, in mol/kg; details: 75 kPa, Liquid; for viscosity: Capillary tube (Ostwald / Ubbelohde) method; for speed of sound: Frequency=3 MHz, Single path-length method; for mass density: Vibrating tube method
[2] = 75 kPa, Liquid, Capillary tube (Ostwald / Ubbelohde) method

O [water] + NCC(=O)O
[1], m2 = 0
Details | viscosity [mPa·s]
288.15 K | 1.146
293.15 K | 1.007
298.15 K | 0.893
303.15 K | 0.797
308.15 K | 0.719

O [water] + NCCCCCC(=O)O
[1], m2 = 0
Details | viscosity [mPa·s]
288.15 K | 1.146
293.15 K | 1.004
298.15 K | 0.893
303.15 K | 0.797
308.15 K | 0.719

O [water]
[2]
Details | viscosity
288.15 K | 1.146 mPa·s
293.15 K | 1.007 mPa·s and 1.004 mPa·s
298.15 K | 0.893 mPa·s and 0.8929 mPa·s
303.15 K | 0.797 mPa·s and 0.7965 mPa·s
308.15 K | 0.719 mPa·s and 0.7187 mPa·s

O [water] + NCCCCC(=O)O
[1], m2 = 0
Details | viscosity [mPa·s]
288.15 K | 1.146
293.15 K | 1.004
298.15 K | 0.893
303.15 K | 0.797
308.15 K | 0.719

O [water] + NCCCC(=O)O
[1], m2 = 0
Details | viscosity [mPa·s]
288.15 K | 1.146
293.15 K | 1.004
298.15 K | 0.893
303.15 K | 0.797
308.15 K | 0.719

[Cl-].[Na+] [sodium chloride] + O
[1]
Details | mass density, m1 = 0.15 | mass density, m1 = 0.25 | speed of sound, m1 = 0.15 | speed of sound, m1 = 0.25 | viscosity, m1 = 0.15 | viscosity, m1 = 0.25 [mPa·s]
288.15 K | 1005.46 kg/m3 and 1005.45 kg/m3 and 1005.36 kg/m3 | 1009.51 kg/m3 | 1476.6 m/s and 1476.5 m/s | 1483.6 m/s and 1483.4 m/s and 1483.3 m/s | 1.156 mPa·s and 1.158 mPa·s | 1.166
293.15 K | 1004.48 kg/m3 [middle of 4 runs] | 1008.5 kg/m3 and 1008.51 kg/m3 | 1492.3 m/s and 1492.2 m/s | – | 1.016 mPa·s | 1.025
298.15 K | 1003.26 kg/m3 and 1003.27 kg/m3 and 1003.18 kg/m3 | 1007.26 kg/m3 | 1506.2 m/s and 1506 m/s and 1506.1 m/s | 1512.5 m/s and 1512.3 m/s and 1512.2 m/s | 0.905 mPa·s and 0.9049 mPa·s and 0.906 mPa·s | 0.913
303.15 K | 1001.83 kg/m3 [middle of 4 runs] | 1005.78 kg/m3 and 1005.79 kg/m3 | 1518.2 m/s and 1518.1 m/s | 1524.3 m/s and 1524.1 m/s and 1524 m/s | 0.811 mPa·s [middle of 4 runs] | 0.819
308.15 K | 1000.11 kg/m3 [middle of 5 runs] | 1004.12 kg/m3 and 1004.11 kg/m3 | 1528.7 m/s and 1528.6 m/s | 1534.3 m/s [middle of 5 runs] | 0.731 mPa·s and 0.7306 mPa·s and 0.732 mPa·s | 0.739

O [water] + NCCC(=O)O
[1], m2 = 0
Details | viscosity [mPa·s]
288.15 K | 1.146
293.15 K | 1.004
298.15 K | 0.8929
303.15 K | 0.7965
308.15 K | 0.7187
